# In patent US10294202B2, “Pyrrolidinones as herbicides” (FMC Corporation, priority 2013, dated 2019):
# What was measured:
# barnyardgrass = experiment: Test E preemergence herbicide test; assay type: in vivo, Echinochloa crus-galli; parameters: key: 0 = no effect, 100 = complete control
# In short: (§1)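 Visual injury rating, 0 (no effect) to 100 (complete control), versus controls at 21 days in greenhouse. Preemergence application to seeds planted in silt loam; compound formulated in non-phytotoxic solvent mix plus surfactant.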
# mustard, wild = experiment: Test D pre-/postemergence herbicide test; assay type: in vivo, Sinapis arvensis; settings: Preemergence; for Plant response rating, Mustard, Wild: scale 0 to 100 (0 no effect, 100 complete control)
# In short: (§2)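 Test chemicals in a non-phytotoxic solvent with surfactant were applied preemergence to seeds in silt loam soil and postemergence to plants at 2-18 cm (1- to 4-leaf stage) in peat-based medium. After 7 to 21 days in a controlled environment, injury was rated visually versus controls on a 0-100 scale (100 = complete control).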
# crabgrass, large = experiment: Test E preemergence herbicide test; assay type: in vivo, Digitaria sanguinalis; parameters: key: 0 = no effect, 100 = complete control
# In short: as §1
# field bindweed = experiment: Test E preemergence herbicide test; assay type: in vivo, Convolvulus arvensis; parameters: key: 0 = no effect, 100 = complete control
# In short: as §1
# barley, spring = experiment: Test D pre-/postemergence herbicide test; assay type: in vivo, Hordeum vulgare; settings: Preemergence; for Plant response rating, Barley, Spring: scale 0 to 100 (0 no effect, 100 complete control)
# In short: as §2
# barley, winter = experiment: Test D pre-/postemergence herbicide test; assay type: in vivo, Hordeum vulgare; settings: Preemergence; for Plant response rating, Barley, Winter: scale 0 to 100 (0 no effect, 100 complete control)
# In short: as §2
# ryegrass, Italian = experiment: Test E preemergence herbicide test; assay type: in vivo, Lolium multiflorum; parameters: key: 0 = no effect, 100 = complete control
# In short: as §1
# foxtail, green = experiment: Test D pre-/postemergence herbicide test; assay type: in vivo, Setaria viridis; settings: Preemergence; for Plant response rating, Foxtail, Green: scale 0 to 100 (0 no effect, 100 complete control)
# In short: as §2
# lambsquarters = experiment: Test E preemergence herbicide test; assay type: in vivo, Chenopodium album; parameters: key: 0 = no effect, 100 = complete control
# In short: as §1
# morningglory = experiment: Test E preemergence herbicide test; assay type: in vivo, Ipomoea coccinea; parameters: key: 0 = no effect, 100 = complete control
# In short: as §1
# nightshade = experiment: Test E preemergence herbicide test; assay type: in vivo, Solanum ptycanthum; parameters: key: 0 = no effect, 100 = complete control
# In short: as §1
compound,measurement,setting,value
O=C1NC[C@H](c2cccc(C(F)(F)F)c2)[C@H]1C(=O)Nc1cccc(F)c1F [Compound 206],"Plant response rating, Barnyardgrass",barnyardgrass; 31 g ai/ha,70
same,"Plant response rating, Barnyardgrass",barnyardgrass; 62 g ai/ha,75
same,"Plant response rating, Barnyardgrass",barnyardgrass; 125 g ai/ha,95
same,"Plant response rating, Barnyardgrass",barnyardgrass; 250 g ai/ha,98
same,"Plant response rating, Mustard, Wild","mustard, wild; 62 g ai/ha",0
same,"Plant response rating, Mustard, Wild","mustard, wild; 125 g ai/ha",0
same,"Plant response rating, Mustard, Wild","mustard, wild; 31 g ai/ha",0
same,Plant response rating,"mustard, wild; 250 g ai/ha, Mustard, Wild, scale 0 to 100",75
same,"Plant response rating, Crabgrass, Large","crabgrass, large; 31 g ai/ha",98
same,"Plant response rating, Crabgrass, Large","crabgrass, large; 62 g ai/ha",98
same,"Plant response rating, Crabgrass, Large","crabgrass, large; 125 g ai/ha",98
same,"Plant response rating, Crabgrass, Large","crabgrass, large; 250 g ai/ha",100
same,"Plant response rating, Field Bindweed",field bindweed; 31 g ai/ha,20
same,"Plant response rating, Field Bindweed",field bindweed; 62 g ai/ha,20
same,"Plant response rating, Field Bindweed",field bindweed; 125 g ai/ha,30
same,"Plant response rating, Field Bindweed",field bindweed; 250 g ai/ha,50
same,"Plant response rating, Barley, Spring","barley, spring; 62 g ai/ha",35
same,"Plant response rating, Barley, Spring","barley, spring; 125 g ai/ha",40
same,"Plant response rating, Barley, Spring","barley, spring; 31 g ai/ha",5
same,Plant response rating,"barley, spring; 250 g ai/ha, Barley, Spring, scale 0 to 100",55
same,"Plant response rating, Barley, Winter","barley, winter; 62 g ai/ha",30
same,"Plant response rating, Barley, Winter","barley, winter; 125 g ai/ha",40
same,"Plant response rating, Barley, Winter","barley, winter; 31 g ai/ha",15
same,Plant response rating,"barley, winter; 250 g ai/ha, Barley, Winter, scale 0 to 100",65
same,"Plant response rating, Ryegrass, Italian","ryegrass, Italian; 31 g ai/ha",0
same,"Plant response rating, Ryegrass, Italian","ryegrass, Italian; 62 g ai/ha",35
same,"Plant response rating, Ryegrass, Italian","ryegrass, Italian; 125 g ai/ha",80
same,"Plant response rating, Ryegrass, Italian","ryegrass, Italian; 250 g ai/ha",65
same,"Plant response rating, Foxtail, Green","foxtail, green; 62 g ai/ha",95
same,"Plant response rating, Foxtail, Green","foxtail, green; 125 g ai/ha",98
same,"Plant response rating, Foxtail, Green","foxtail, green; 31 g ai/ha",85
same,Plant response rating,"foxtail, green; 250 g ai/ha, Foxtail, Green, scale 0 to 100",98
same,"Plant response rating, Lambsquarters",lambsquarters; 31 g ai/ha,35
same,"Plant response rating, Lambsquarters",lambsquarters; 62 g ai/ha,65
same,"Plant response rating, Lambsquarters",lambsquarters; 125 g ai/ha,95
same,"Plant response rating, Lambsquarters",lambsquarters; 250 g ai/ha,98
same,"Plant response rating, Morningglory",morningglory; 31 g ai/ha,0
same,"Plant response rating, Morningglory",morningglory; 62 g ai/ha,0
same,"Plant response rating, Morningglory",morningglory; 125 g ai/ha,0
same,"Plant response rating, Morningglory",morningglory; 250 g ai/ha,0
same,"Plant response rating, Nightshade",nightshade; 31 g ai/ha,0
same,"Plant response rating, Nightshade",nightshade; 62 g ai/ha,0
same,"Plant response rating, Nightshade",nightshade; 125 g ai/ha,5
same,"Plant response rating, Nightshade",nightshade; 250 g ai/ha,10
